The subject of series [1] is cortical cells. The series is described as follows: Survival of cortical cells exposed to cotinine alone, MTT assay. The format is cell-based, rat. The following applies: various concentrations of cotinine, 48 hours. Here is the method: Cortical cells were subjected to various concentrations of cotinine and cell viability was assessed after 48 hours by MTT assay (see FIG. 1). Statistical significance of the differences in MTT values was assessed by one-way ANOVA with Tukey post-test. ns, not significant difference with (P>0.05).
For orientation: Tetrazolium dyes change colour on reduction, which living cells bring about.

The subject of series [2] is phospho-CREB (Serine 133). In words: BDNF-stimulated phosphorylation of CREB after Aβ exposure, Western blot. Format: cell-based, rat. The following applies: 5 μM Aβ1-42 + 10 μM cotinine 5 h, then BDNF 1 h. Here is the method: Western blot analysis of the BDNF-stimulated phosphorylation of CREB in extracts of cortical cells. Cells were exposed to vehicle, 5 μM Aβ alone or 5 μM Aβ plus 10 μM cotinine for 5 hours, then to BDNF (50 ng/ml) for 1 hour and analyzed for CREB by western blot (FIG. 6B). The histogram (FIG. 6A) represents the levels of phospho-CREB (Ser133) normalized against β-Tubulin used as a control of protein loading. The values represent significant (*) difference with P<0.05.
Rat embryonic cortical cells were cultured in 24-well plates (0.3×10^6 cells/well) for 7 days, washed with PBS, collected and disrupted by sonication in ice-cold cell lysis buffer containing (20 mM Tris (pH 7.4), 150 mM NaCl, 1 mM ethylenediaminetetraacetic acid (EDTA), 1 mM egtazic acid (EGTA), 1% triton, 2.5 mM Na pyrophosphate, 1 mM β-glycerophosphate, 1 mM Na orthovanadate, 1 μg/ml leupeptin) (Cell Signaling Technology, Beverly, Mass., USA), 1 mM phenylmethylsulfonyl fluoride (PMSF) (Sigma) complete protease inhibitor cocktail (Roche Molecular Biochemicals, Indianapolis, Ind., USA). […] Protein concentration of supernatants was measured by Bio-Rad protein assay (Bio-Rad, Hercules, Calif., USA), and equal amounts of protein were separated by gradient (4-20%) SDS-PAGE and transferred to nitrocellulose membranes (BA83 0.2 μm; Bio-Rad). […]

The subject of series [3] is rat cortical cells exposed to Aβ1-42. In words: Aβ toxicity assay, MTT cell viability. Format: cell-based. Here is the method: Primary cortical embryonic rat neurons were incubated with 5 μM Aβ in the presence or absence of various concentrations cotinine for […] as described (Echeverria et al. (2005)). Cell viability was assessed using the MTT assay (Sigma). As an alternative approach cell viability after exposure to Aβ and cotinine was assessed using the vital dye calcein-AM (green fluorescence) to stain live cells and propidium iodide to stain dead cells. MTT values were normalized to control values considered 100%.
It has been discovered that cotinine protects brain cortical cells against the toxicity of the Amyloid beta peptide. The cortical cells were exposed to 5 microM Aβ for 24 hours and 48 hours and analyzed for cell viability using two viability tests. Cell viability was quantified by MTT and propidium iodide (PI) and calcein-AM staining assays. MTT assay measures the mitochondrial conversion of the tetrazolium salt MTT (3-(4,5-dimethylthiazol-2-yl)-2,5-diphenyl tetrazolium bromide) to formazan. To perform the MTT assay the cell culture medium was replaced with medium containing MTT (0.5 mg/mL). Following 1-4 h of incubation at 37° C., MTT formazan crystals were dissolved in DMSO and absorbance at 570 nm was measured. Absorbance values are a measure of cell viability. MTT results are expressed as percentage of vehicle treated controls. MTT assays were performed by measuring the levels of formazan after dissolving the precipitates in DMSO. The double calcein—AM and PI staining, involves staining with PI (a fluorescent nucleic acid dye used for the staining of dead cells) and calcein-AM a compound that inside of live brain cells, is converted to the green fluorescent compound calcein. After 30 minutes of incubation of the cells with these compounds were washed and analyzed by fluorescence microscopy. […] Cotinine inhibits Abeta oligomerization and prevents its toxicity on cortical neurons.
Embryonic rat cortical neurons were cultured following the protocol described (Brewer (1995)) but using embryonic cortical tissues obtained from Brain Bits LLC (Springfield, Ill., USA). The brain tissues were dissociated by 0.05% (v/v) trypsin digestion and dissociated by repeated passages through a pipette tip. Cortical cells (2×10^5 cells, 1,250 cells/mm^2) were plated in Neurobasal E medium, supplemented with 2% B27, and 1 mM Glutamax and plated onto 20-mm tissue culture wells coated with poly-D-lysine (0.1 mg/ml). Then cortical cells were incubated at 37° C. in a humidified incubator with 95% air/5% CO2 for 7-10 days, before being used for cell viability and protein expression analysis.
For the Aβ neurotoxicity assay, after 7 days in vitro (DIV) the conditioned media of cortical cells was replaced with Neurobasal E medium, supplemented with 2% B27 without antioxidants (B27-AO; Invitrogen, Carlsbad, Calif.) for 2 h. […]
Cell viability was quantified by MTT and propidium iodide (PI) and calcein-AM staining. […] Following 1-4 h incubation at 37° C., MTT formazan crystals were dissolved in DMSO and absorbance at […] was measured. MTT results are expressed as a percentage of vehicle-treated controls.
To investigate the effect of cotinine on Aβ neurotoxicity, rat cortical cells were grown in conditions that permitted us to obtain a neuron-enriched culture (around 95% neuron and 5% glial cells) for 7-10 days. […] After 24 h, cell survival was assessed by using MTT and PI and calcein-AM cell viability assays. […]

The structures appear in SMILES notation.

In general, viability refers to a per cent measure of how many cells are alive, often set against a control. Take `CN1C(=O)CC[C@H]1c1cccnc1` [cotinine]: in series [1], the “survival of cortical neurons exposed to cotinine alone” value is “not Affected”. Also, in series [2], the “increase of phosphoCREB versus cells treated with BDNF plus Aβ1-42” value came out at 34% and the “phosphoCREB level relative to control cells” value is “indistinguishable from the control cell values”. Further, in series [3] (5 μM Aβ + 10 μM cotinine, 24 h, 7 DIV cortical cells, Aβ alone 76%), the “cell survival, % of vehicle-treated control cells (MTT)” value came out at 85%. Further, the “effect on Aβ neurotoxicity when cotinine is added after pre-aggregation of Aβ” value in series [3] (Aβ pre-incubated 3 h at 4° C. without cotinine, then added to media containing 10 μM cotinine) was “not able to block Aβ neurotoxicity”. For the same molecule, the “increase in cell viability versus Aβ alone” value in series [3] (Aβ pre-incubated with 10 μM cotinine 3 h at 4° C.) amounted to 22%. This molecule registered a viability at 10 µM in series [3] (Rattus norvegicus, Aβ pre-incubated with 10 μM cotinine 3 h at 4° C., then 24 h on cells, Aβ alone 66%±3.6) of 87.3%. Also, the “lowest cotinine concentration protecting cortical cells against Aβ toxicity (MTT)” value in series [3] (added together with 5 μM Aβ, 24 h) is 1 µM.

The values are drawn from patent US10238641B2, “Materials and methods for diagnosis, prevention and/or treatment of stress disorders and conditions associated with A-beta peptide aggregation” (The United States of America as represented by the …, priority 2008, dated 2019).
